ChEMBL document CHEMBL1201862, “PubChem BioAssay data set” (2004)
The source made the active and inactive calls.

How the values were obtained:
HEK293 [1] = assay: NOD1 signaling inhibitors, primary screen, cell-based, luminescence, uHTS (AID 1578); assay type: functional; settings: Homo sapiens
HEK293 [2] = assay: cells; assay type: functional, cell-based; settings: Homo sapiens
HEK293 [3] = assay: cells; assay type: functional, cell-based; settings: Homo sapiens; remark: listed apart in the source
HEK293 [4] = assay: NOD2 signaling inhibitors in MDP-stimulated cells, cell-based, uHTS, luminescence (AID 2001); assay type: functional; settings: Homo sapiens
HEK293 [5] = assay: inhibitors of LMP1-driven NF-kB reporter, dose response, cell-based, HEK293, luciferase, cherry-pick (AID 588343); assay type: functional, Homo sapiens; settings: hek293
Cytochrome P450 3A4 = Cytochrome P450 3A4 (Homo sapiens, UniProt P08684);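 also: CYP3A4 tested as one member of a cytochrome P450 panel screen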
Sequence of Cytochrome P450 3A4 (P08684 whole entry): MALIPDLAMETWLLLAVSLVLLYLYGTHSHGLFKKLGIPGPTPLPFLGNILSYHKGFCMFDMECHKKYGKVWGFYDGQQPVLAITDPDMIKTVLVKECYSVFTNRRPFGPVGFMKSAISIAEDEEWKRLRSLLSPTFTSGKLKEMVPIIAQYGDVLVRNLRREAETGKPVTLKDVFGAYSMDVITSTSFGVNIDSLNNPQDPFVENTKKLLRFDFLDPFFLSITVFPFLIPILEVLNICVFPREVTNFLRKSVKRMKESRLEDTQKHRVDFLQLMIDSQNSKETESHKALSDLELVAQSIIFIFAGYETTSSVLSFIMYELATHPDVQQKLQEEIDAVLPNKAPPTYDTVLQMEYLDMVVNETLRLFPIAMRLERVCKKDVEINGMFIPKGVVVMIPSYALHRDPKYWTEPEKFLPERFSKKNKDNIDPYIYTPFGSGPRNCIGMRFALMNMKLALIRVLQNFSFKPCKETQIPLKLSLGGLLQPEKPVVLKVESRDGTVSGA

[6] = molecular target: Alkaline phosphatase, placental type (Homo sapiens, UniProt P05187); assay: PLAP enzyme inhibitors, confirmation, biochemical, luminescence (AID 1512); assay type: functional
Sequence of Alkaline phosphatase, placental type (P05187 whole entry): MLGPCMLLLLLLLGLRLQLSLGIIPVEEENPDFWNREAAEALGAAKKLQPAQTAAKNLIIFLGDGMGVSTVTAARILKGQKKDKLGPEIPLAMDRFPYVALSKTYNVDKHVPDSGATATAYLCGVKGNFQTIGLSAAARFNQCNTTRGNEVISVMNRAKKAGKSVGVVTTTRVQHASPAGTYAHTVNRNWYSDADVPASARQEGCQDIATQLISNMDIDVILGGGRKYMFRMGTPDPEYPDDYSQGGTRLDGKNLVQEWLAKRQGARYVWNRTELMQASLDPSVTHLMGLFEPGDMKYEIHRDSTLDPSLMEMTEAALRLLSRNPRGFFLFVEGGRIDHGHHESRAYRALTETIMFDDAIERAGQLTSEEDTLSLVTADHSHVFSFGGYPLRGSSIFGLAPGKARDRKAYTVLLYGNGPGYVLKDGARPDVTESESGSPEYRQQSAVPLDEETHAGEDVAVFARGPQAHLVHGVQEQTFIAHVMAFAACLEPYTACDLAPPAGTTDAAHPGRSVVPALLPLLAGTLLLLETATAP

[7] = molecular target: T1, Alkaline phosphatase, tissue-nonspecific isozyme (Homo sapiens, UniProt P05186); assay: human TNAP enzyme inhibitors, SAR follow-up, biochemical, luminescent, dose response (AID 1056)
T1 sequence (P05186 whole entry): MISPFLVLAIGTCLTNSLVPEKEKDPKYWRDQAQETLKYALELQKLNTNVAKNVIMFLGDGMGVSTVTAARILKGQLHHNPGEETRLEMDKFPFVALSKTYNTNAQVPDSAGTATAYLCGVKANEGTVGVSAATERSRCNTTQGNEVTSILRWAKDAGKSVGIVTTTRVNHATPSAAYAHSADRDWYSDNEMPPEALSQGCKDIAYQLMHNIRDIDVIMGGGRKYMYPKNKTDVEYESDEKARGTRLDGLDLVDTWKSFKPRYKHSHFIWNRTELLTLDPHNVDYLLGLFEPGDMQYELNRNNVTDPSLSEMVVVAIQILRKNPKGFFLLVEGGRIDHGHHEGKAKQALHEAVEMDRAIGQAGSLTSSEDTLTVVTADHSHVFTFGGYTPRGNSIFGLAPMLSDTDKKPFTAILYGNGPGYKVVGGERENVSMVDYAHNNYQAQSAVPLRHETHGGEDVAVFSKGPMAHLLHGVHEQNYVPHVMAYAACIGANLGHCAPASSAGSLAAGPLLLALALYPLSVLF

[8] = cytotoxicity in HEK-293T cells, dose response, cytotoxicity control for BCR NF-kB inhibitor project, luminescence, B-cell screen hits (AID 489021); assay type: functional, cell-based;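 also: HEK-293T cells carrying an NF-kB luciferase reporter; cells exposed to compound for about 14 hours before viability readout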
Cytochrome P450 2D6 [9] = molecular target: T2, Cytochrome P450 2D6 (Homo sapiens, UniProt P10635);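 also: CYP2D6 member of a cytochrome P450 panel assay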
T2 sequence (P10635 whole entry): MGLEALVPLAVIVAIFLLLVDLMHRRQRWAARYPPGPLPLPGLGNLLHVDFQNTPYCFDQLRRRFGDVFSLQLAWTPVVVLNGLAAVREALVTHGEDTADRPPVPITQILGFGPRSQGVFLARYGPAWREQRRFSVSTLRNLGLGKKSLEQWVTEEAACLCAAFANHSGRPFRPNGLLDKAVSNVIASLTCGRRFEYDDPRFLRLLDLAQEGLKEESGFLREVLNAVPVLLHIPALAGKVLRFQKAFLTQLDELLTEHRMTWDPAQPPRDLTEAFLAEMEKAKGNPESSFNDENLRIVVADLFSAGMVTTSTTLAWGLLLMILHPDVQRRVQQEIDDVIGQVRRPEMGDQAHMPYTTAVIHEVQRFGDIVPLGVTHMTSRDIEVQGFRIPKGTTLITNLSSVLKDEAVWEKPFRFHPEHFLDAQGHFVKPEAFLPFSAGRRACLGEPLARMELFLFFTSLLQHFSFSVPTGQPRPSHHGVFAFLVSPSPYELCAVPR

Bcl-2-related protein A1 = molecular target: T3, Bcl-2-related protein A1 (Mus musculus, UniProt Q07440); assay type: functional;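 also: confirmatory dose–response counterscreen on Bfl-1, used to check hits from a UBC13 polyubiquitin inhibitor campaign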
T3 sequence (Q07440 whole entry): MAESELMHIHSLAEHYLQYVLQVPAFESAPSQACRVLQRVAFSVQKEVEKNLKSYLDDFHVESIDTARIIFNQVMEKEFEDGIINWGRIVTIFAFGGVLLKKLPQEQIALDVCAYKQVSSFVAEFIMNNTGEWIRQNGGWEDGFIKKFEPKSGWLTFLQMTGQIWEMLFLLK

[10] = molecular target: T4, Ubiquitin-conjugating enzyme E2 N (Homo sapiens, UniProt P61088); assay type: functional
T4 sequence (P61088 whole entry): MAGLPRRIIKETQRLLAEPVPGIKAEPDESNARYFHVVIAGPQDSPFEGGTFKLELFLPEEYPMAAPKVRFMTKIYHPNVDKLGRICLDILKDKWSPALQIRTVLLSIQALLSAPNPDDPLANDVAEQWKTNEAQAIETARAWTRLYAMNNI

[11] = molecular target: T4, Ubiquitin-conjugating enzyme E2 N; assay type: functional; remark: listed apart in the source
Cytochrome P450 2C19 = Cytochrome P450 2C19 (Homo sapiens, UniProt P33261); assay: Cytochrome panel assay with activity outcomes. Panel member name: p450-cyp2c19 Compounds with AC50 equal or less than 10 uM are considered active; assay type: functional
Sequence of Cytochrome P450 2C19 (P33261 whole entry): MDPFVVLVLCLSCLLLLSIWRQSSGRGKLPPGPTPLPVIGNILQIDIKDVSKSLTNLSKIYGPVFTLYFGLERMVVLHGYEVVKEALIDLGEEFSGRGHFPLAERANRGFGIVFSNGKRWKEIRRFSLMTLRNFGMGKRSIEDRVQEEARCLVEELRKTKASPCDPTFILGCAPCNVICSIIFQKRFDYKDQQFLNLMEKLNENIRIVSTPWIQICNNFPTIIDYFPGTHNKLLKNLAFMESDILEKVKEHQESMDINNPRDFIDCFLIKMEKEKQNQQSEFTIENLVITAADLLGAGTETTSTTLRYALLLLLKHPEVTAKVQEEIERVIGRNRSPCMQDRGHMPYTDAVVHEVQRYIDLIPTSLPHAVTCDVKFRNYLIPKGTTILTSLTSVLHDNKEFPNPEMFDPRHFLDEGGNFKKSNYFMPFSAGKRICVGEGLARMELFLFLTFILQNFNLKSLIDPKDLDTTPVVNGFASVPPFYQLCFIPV

Cytochrome P450 2D6 [12] = molecular target: T2, Cytochrome P450 2D6; remark: listed apart in the source
[13] = molecular target: Glucose-6-phosphate 1-dehydrogenase (Homo sapiens, UniProt P11413); assay: human G6PD enzyme inhibitors, dose response, selectivity assay for P. falciparum G6PD inhibitor project, biochemical, fluorescence (AID 504792); assay type: functional
Sequence of Glucose-6-phosphate 1-dehydrogenase (P11413 whole entry): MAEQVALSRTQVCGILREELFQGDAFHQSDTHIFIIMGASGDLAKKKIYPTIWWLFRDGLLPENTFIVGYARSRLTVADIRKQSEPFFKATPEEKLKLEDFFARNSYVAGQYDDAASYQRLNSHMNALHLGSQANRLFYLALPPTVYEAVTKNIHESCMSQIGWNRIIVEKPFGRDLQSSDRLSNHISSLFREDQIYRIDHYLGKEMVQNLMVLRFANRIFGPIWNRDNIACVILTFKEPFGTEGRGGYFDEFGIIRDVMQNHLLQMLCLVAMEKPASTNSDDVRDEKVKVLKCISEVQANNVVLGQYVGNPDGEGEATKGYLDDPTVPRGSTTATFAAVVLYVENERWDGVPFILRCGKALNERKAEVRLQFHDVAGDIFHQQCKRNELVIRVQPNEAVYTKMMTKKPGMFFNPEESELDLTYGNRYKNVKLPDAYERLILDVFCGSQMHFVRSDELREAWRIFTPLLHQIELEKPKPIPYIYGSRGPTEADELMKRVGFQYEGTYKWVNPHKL

[14] = system: Streptococcus sp. 'group A'; assay: growth inhibition of control SK(-) GAS strain, dose response, counter-screen for streptokinase expression inhibitor project, luminescence, kanamycin, BacTiterGlo, confirmation (AID 1900); assay type: functional, organism-based
Streptococcus = assay: Group A Streptococcus viability loss, dose response, counter-screen for streptokinase expression inhibitor project, luminescence, BacTiterGlo (AID 1915); assay type: functional, organism-based;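 also: potency for reduction of bacterial viability or growth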
[15] = THP-1 cell cytotoxicity, dose response, cytotoxicity control for non-replicating M. tuberculosis project (AID 489025); assay type: functional
[16] = Vero E6 cell cytotoxicity, dose response, cytotoxicity control for non-replicating M. tuberculosis project, secondary assay (AID 492998); assay type: functional, VeroE6; settings: Vero C1008
cells = assay type: functional
Cytochrome P450 1A2 = molecular target: T5, Cytochrome P450 1A2 (Homo sapiens, UniProt P05177);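 also: PubChem cytochrome P450 panel assay, CYP1A2 panel member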
T5 sequence (P05177 whole entry): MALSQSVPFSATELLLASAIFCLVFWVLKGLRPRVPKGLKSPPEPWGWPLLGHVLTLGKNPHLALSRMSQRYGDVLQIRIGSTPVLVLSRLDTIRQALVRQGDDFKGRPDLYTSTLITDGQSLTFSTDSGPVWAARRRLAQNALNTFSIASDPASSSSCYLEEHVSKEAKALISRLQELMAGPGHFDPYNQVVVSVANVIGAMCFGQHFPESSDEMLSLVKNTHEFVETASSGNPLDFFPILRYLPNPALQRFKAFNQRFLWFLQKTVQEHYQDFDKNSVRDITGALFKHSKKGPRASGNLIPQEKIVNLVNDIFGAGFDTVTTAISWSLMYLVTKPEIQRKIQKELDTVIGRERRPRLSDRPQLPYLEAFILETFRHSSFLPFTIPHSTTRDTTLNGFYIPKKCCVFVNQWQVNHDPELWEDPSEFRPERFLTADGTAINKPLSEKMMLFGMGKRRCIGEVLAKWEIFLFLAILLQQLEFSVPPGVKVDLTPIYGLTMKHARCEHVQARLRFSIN

Cytochrome P450 2C9 = Cytochrome P450 2C9 (Homo sapiens, UniProt P11712)
Sequence of Cytochrome P450 2C9 (P11712 whole entry): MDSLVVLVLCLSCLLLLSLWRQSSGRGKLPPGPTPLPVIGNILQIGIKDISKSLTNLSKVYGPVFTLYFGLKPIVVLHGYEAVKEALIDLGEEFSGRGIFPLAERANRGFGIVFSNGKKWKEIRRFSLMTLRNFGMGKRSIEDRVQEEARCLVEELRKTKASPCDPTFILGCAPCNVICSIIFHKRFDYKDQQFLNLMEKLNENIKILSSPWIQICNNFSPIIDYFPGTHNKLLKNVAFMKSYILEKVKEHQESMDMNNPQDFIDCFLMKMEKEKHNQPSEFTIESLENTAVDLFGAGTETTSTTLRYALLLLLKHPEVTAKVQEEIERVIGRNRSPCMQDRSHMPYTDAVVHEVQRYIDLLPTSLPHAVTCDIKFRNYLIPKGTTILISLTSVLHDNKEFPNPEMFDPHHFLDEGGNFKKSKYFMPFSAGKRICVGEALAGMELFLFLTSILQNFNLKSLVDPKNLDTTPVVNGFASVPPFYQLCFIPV

[17] = molecular target: DNA dC->dU-editing enzyme APOBEC-3A (Homo sapiens, UniProt P31941); assay: Dose Response confirmation of small molecule APOBEC3A DNA Deaminase Inhibitors via a fluorescence-based single-stranded DNA deaminase assay. [Related pubchem assays (depositor defined):AID493011, AID493024]; assay type: functional
Sequence of DNA dC->dU-editing enzyme APOBEC-3A (P31941 whole entry): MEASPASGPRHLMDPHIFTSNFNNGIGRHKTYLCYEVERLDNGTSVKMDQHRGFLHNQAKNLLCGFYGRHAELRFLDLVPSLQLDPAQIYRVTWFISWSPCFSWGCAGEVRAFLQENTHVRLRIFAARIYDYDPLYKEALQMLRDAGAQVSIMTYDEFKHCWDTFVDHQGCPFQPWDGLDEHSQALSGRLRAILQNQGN

[18] = molecular target: DNA dC->dU-editing enzyme APOBEC-3G (Homo sapiens, UniProt Q9HC16); assay type: functional;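 also: Dose-response counterscreen measuring inhibition of APOBEC3G DNA deaminase activity, run while confirming APOBEC3A inhibitors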
Sequence of DNA dC->dU-editing enzyme APOBEC-3G (Q9HC16 whole entry): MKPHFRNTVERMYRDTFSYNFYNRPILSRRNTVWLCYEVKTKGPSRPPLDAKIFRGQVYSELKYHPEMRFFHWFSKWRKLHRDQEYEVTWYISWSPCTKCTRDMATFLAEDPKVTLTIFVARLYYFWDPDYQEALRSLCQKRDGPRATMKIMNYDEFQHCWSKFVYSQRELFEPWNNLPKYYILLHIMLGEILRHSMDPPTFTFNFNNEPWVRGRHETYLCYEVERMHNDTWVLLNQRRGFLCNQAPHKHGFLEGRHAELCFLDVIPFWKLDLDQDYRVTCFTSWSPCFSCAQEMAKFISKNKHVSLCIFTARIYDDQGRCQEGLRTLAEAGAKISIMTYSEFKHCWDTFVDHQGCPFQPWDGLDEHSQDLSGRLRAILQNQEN

[19] = molecular target: T6, Heat shock factor protein 1 (Mus musculus, UniProt P38532); assay: HSF1 potentiators in luciferase reporter cells, confirmation, cell-based, NIH3T3, luminescence, dose retest (AID 435004); assay type: functional;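 also: stress induced by proteasome inhibitor MG132 added 30 min after compound; luciferase reporter driven by HSF1 response element in NIH3T3 cells; actives raise luminescence as potentiators of the MG132 stress response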
T6 sequence (P38532 whole entry): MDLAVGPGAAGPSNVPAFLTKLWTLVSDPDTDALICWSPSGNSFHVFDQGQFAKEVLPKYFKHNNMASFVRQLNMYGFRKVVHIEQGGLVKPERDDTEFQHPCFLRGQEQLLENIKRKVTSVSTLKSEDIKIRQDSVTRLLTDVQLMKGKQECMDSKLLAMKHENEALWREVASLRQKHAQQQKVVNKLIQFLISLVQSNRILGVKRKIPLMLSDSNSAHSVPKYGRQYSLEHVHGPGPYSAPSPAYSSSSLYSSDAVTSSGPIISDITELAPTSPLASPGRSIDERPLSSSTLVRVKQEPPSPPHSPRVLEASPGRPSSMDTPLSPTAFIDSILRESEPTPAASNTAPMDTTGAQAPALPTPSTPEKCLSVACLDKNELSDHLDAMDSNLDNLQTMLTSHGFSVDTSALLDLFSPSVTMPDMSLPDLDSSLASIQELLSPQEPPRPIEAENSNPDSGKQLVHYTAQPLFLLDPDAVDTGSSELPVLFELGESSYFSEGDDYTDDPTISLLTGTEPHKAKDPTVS

SMILES: CCN1CCN(Cc2ccc(NC(=O)c3ccc(C)c(NC(=O)c4ccno4)c3)cc2C(F)(F)F)CC1
- EC50 (HEK293 [1]): 7.63 µM (active)
- IC50 (HEK293 [2]): > 20 µM (inactive)
- IC50 (HEK293 [3]): > 20 µM (inactive)
- IC50 (HEK293 [4]): 11.9 µM (inactive)
- AC50 (HEK293 [5]): 0.0692 µM (active)

SMILES: COC(=O)[C@](C)(N)Cc1ccc(O)cc1
- AC50 (Cytochrome P450 3A4): inconclusive

SMILES: O/N=C/c1cc(Cl)ccc1OCc1cccc2ccccc12
- IC50 [6]: > 100 µM (inactive)
- IC50 [7]: > 100 µM (inactive)

SMILES: Cc1cc(C)nc(Sc2ccc([N+](=O)[O-])cc2[N+](=O)[O-])n1
- EC50 (HEK293 [1]): > 20 µM (inactive)
- IC50 (HEK293 [2]): 6.2 µM (active)
- IC50 (HEK293 [3]): > 20 µM (inactive)
- IC50 (HEK293 [4]): 14.3 µM (inactive)
- IC50 [8]: > 80 µM (inactive)

SMILES: c1ccc2c(c1)nnn2CN1CCOCC1
- AC50 (Cytochrome P450 2D6 [9]): inconclusive

SMILES: Cc1ccc(N(C(=O)c2snc(C(N)=O)c2N)C(C(=O)NC2CCCC2)c2ccco2)cc1 (configuration not stated)
- IC50 (Bcl-2-related protein A1): > 20 µM (inactive)
- IC50 [10]: 13.3 µM (active)
- IC50 [11]: 8.18 µM (active)

SMILES: O=C(Nc1ccc(F)c(Cl)c1)C1CCN(c2ncnc3c2nc2n3CCCCC2)CC1
- IC50 (Bcl-2-related protein A1): > 20 µM (inactive)
- IC50 [10]: 9.53 µM (active)
- IC50 [11]: 8.53 µM (active)

SMILES: CCC(C(=O)NC1CCCC1)N(C(=O)c1snc(C(N)=O)c1N)c1ccc2c(c1)OCCO2 (configuration not stated)
- IC50 (Bcl-2-related protein A1): > 20 µM (inactive)
- IC50 [10]: 5.82 µM (active)
- IC50 [11]: 7.69 µM (active)

SMILES: Cc1ccc(/C=N/NC(=O)c2cccs2)cc1[N+](=O)[O-]
- AC50 (Cytochrome P450 2C19; read-out: AC50): 31.6 µM (inconclusive)
- AC50 (Cytochrome P450 2D6 [12]): 0.0251 µM (inconclusive)
- AC50 (Cytochrome P450 3A4): inconclusive

SMILES: O=C(CNC(=O)c1ccco1)OCC(=O)c1ccc([N+](=O)[O-])cc1
- IC50 [13]: > 80 µM (inactive)

SMILES: Cc1cnn(CC(=O)c2ccc(O)c(O)c2)c1
- IC50 [6]: 2.13 µM (active)
- IC50 [7]: > 100 µM (inactive)

SMILES: CCC(CC)c1nnc(NC(=O)c2ccc3ccccc3n2)s1
- EC50 [14]: 8.53 µM (active)
- EC50 (Streptococcus): 12.5 µM (active)
- CC50 [15]: > 40 µM (active)
- CC50 [16]: 18.4 µM (active)
- IC50 (cells): 0.42 µM (active)
- AC50 (Cytochrome P450 2C19; read-out: AC50): 28.2 µM (active)
- AC50 (Cytochrome P450 1A2): 2.51 µM (active)
- AC50 (Cytochrome P450 2C9): 7.94 µM (active)
- AC50 (Cytochrome P450 2D6 [9]): inactive

SMILES: CCN1C(NCCCCO)=N[C@@H](c2cccc(F)c2)C(C(=O)OC)=C1C
- IC50 [17]: 3.06 µM (active)
- IC50 [18]: 5.05 µM (active)

SMILES: COC(=O)c1ccc(NC(=O)N2CCC(O)(c3cccnc3)CC2)cc1
- AC50 (Cytochrome P450 2C19): inconclusive
- AC50 (Cytochrome P450 2D6 [12]): 15.8 µM (inconclusive)
- AC50 (Cytochrome P450 3A4): inconclusive

SMILES: O=C1CN(C(=O)c2ccc(Br)o2)C(c2ccc(F)cc2)c2cc(Cl)ccc2N1 (configuration not stated)
- EC50 [19]: > 260 µM (inactive)
- AC50 (Cytochrome P450 1A2): 0.0631 µM (inconclusive)
- AC50 (Cytochrome P450 3A4): inconclusive

SMILES: CC(C)CCC[C@@H](C)[C@@H]1CC[C@@H]2[C@H]3CC[C@H]4C[C@@H](N)CC[C@@]4(C)[C@@H]3CC[C@]21C
- AC50 (Cytochrome P450 2C19): inconclusive
- AC50 (Cytochrome P450 2D6 [9]): inconclusive

SMILES: C[C@H](Br)CN(C[C@H](C)Br)c1ccc2c(c1)Cc1ccccc1-2
- AC50 (Cytochrome P450 2D6 [9]): inconclusive

SMILES: CC(=O)Nc1nnc(SCC(=O)NCCOc2ccccc2)s1
- IC50 [17]: 4.13 µM (active)
- IC50 [18]: 5.12 µM (active)

SMILES: Cc1ccc(-c2csc(NC(=O)c3ccc(Br)cc3)c2C(=O)O)cc1
- IC50 [13]: > 80 µM (inactive)

SMILES: COc1ccc(C(=O)N2CCC3(CC2)CCN(c2ncccn2)CC3)cc1
- AC50 (Cytochrome P450 2D6 [12]): 20 µM (inconclusive)
- AC50 (Cytochrome P450 3A4): inconclusive

SMILES: O=C1c2cccc3cccc(c23)C(=O)N1CC1CCN(CC(O)COCc2ccc3c(c2)OCO3)CC1 (configuration not stated)
- IC50 (Bcl-2-related protein A1): > 20 µM (inactive)
- IC50 [10]: 4.33 µM (active)
- IC50 [11]: 3.25 µM (active)

SMILES: COCCNC(=O)COC(=O)/C=C/c1cnc2ccccc2n1
- AC50 (Cytochrome P450 2C9): 1.12 µM (inconclusive)
- AC50 (Cytochrome P450 2D6 [9]): inconclusive

SMILES: CN1CCN(C(=O)C2CCN(c3ncnc4c3nc3n4CCCCC3)CC2)CC1
- IC50 (Bcl-2-related protein A1): > 20 µM (inactive)
- IC50 [10]: 6.77 µM (active)
- IC50 [11]: 3.51 µM (active)
